Measurements taken from patent US20190290729A1, “PHARMACEUTICAL ASSOCIATION OF GROWTH FACTOR RECEPTOR AGONIST AND ADHESION PROTEIN INHIBITOR FOR CONVERTING A NEOPLASTIC CELL INTO A NON-NEOPLASTIC CELL AND USES THEREOF” (HISTIDE AG, priority 2015, published 2019).
Where no end group is shown, it is not given here.

Columns and labels:
[1] = tested on: human rhabdosarcoma cells; assay: p53 quantification, same procedure, rhabdosarcoma cells; format: cell-based; set-up: P53: unit not given here; details: for P53: Table 9, in association with SiRNA Integrin alpha 3+RGDSPC+SiRNA Integrin beta 1+SiRNA Syndecan 1 (SEQ ID NO: 31, 32, 164 to 187)
Method: (§1) The following starting materials and reagents were used: • Type-I collagen sponge was obtained from Sigma®. • PBS 1× was obtained from Gibco®. • MilliQ water: is water characterised in terms of resistivity (typically 18.2 MΩ·cm at 25° C.). • Low glucose Dulbecco's Modified Eagle Medium (DMEM) was obtained from Invitrogen® • Minimum Essential Medium Eagle without ascorbic acid (αMEM) was obtained from Invitrogen®. • All of the cell culture experiments were carried out without any serum in the medium for the first 8 hours of culture. • Osteosarcoma cells: MG63 cells were obtained from ATCC®. These cells were cultured in DMEM (Eagle's Minimum Essential Medium) medium supplemented with 10% fetal calf serum (FCS) and 1% penicillin/streptomycin. All cells were used at a low passage number (passage 10), were subconfluently cultured and were seeded at 10^4 cells/cm^2 for the purpose of the experiments. • Chondrosarcoma cells Hs819.T cells were obtained from ATCC®. These cells were cultured in DMEM (Eagle's Minimum Essential Medium) medium supplemented with 10% fetal calf serum (FCS) and 1% penicillin/streptomycin. All cells were used at a low passage number (passage 10), were subconfluently cultured and were seeded at 10^4 cells/cm^2 for the purpose of the experiments. • Rhabdomyosarcoma cells: A-673 cells were obtained from ATCC®. These cells were cultured in DMEM (Eagle's Minimum Essential Medium) medium supplemented with 10% fetal calf serum (FCS) and 1% penicillin/streptomycin. All cells were used at a low passage number (passage 10), were subconfluently cultured and were seeded at 10^4 cells/cm^2 for the purpose of the experiments. • Adenocarcinoma cells: HCC4006 cells were obtained from ATCC®. These cells were cultured in RPMI-1640 medium (obtained from ATCC®) supplemented with 10% fetal calf serum (FCS) and 1% penicillin/streptomycin. All cells were used at a low passage number (passage 10), were subconfluently cultured and were seeded at 10^4 cells/cm^2 for the purpose of the experiments. • CMFDA is a Cell Tracker Green obtained from Invitrogen®. • DAPI was obtained from Sigma®. • Fetal bovine serum (FBS) was obtained from Gibco®. • Penicillin/streptomycin was obtained from Invitrogen®. • The AlamarBlue® assay was obtained from Molecular Probes®. • Anti phospho-p53 antibody was obtained from Santa Cruz Biotechnology®, • Anti pRB antibody was obtained from Santa Cruz Biotechnology®, • Monoclonal anti-integrin (extracellular domain) αv, α5, α3, α4, β1, β3, β5 and β9 antibodies were obtained from Santa Cruz Biotechnology®, • Cell cytoskeletal filamentous actin (F-actin) was visualized by Alexa Fluor® 488 phalloidin Sigma® labeling. • Monoclonal anti-vinculin antibody (clone hVIN-1, produced in mouse) was obtained from Sigma®.
(§2) • All of the peptides were synthetized using conventional solution and/or solid phase peptide synthesis methods. • All of the experiments were performed with a concentration of 400 ng/mL of GFR-binding compound(s) as defined herein. • All cell culture experiments were performed with cultures on plastic coated with type-I collagen in order to mimic the physiological conditions of the human body. • The compositions of pharmaceutical compositions used in the examples below are summarized in the following table:
(§3) The cells were first fixed for 20 min with 4% paraformaldehyde/PBS at 4° C. After fixation, the cells were permeabilized in PBS containing 1% Triton X-100 for 15 min. Protein immunofluorescent visualization was performed by first treating the cells with 1% (v/v) specific monoclonal antibodies for 1 hour at 37° C. Then the samples were incubated with Alexa Fluor® 568 or 647 (F(ab′)2 fragment of IgG(H+L)) during 30 min at room temperature. The cell nuclei were counterstained in 20 ng/mL DAPI for 10 min at room temperature.
(§4) For this type of quantification the freeware image analysis ImageJ® software was used. […]

[2] = tested on: human rhabdosarcoma cells; assay: pRB quantification, same procedure, rhabdosarcoma cells; format: cell-based; details: for pRB: Table 9, in association with SiRNA Integrin alpha 3+RGDSPC+SiRNA Integrin beta 1+SiRNA Syndecan 1 (SEQ ID NO: 31, 32, 164 to 187)
Method: as §1, §2, §3, §4

[3] = Table 8, in association with SiRNA Integrin alpha 3, v, 4 and SiRNA Integrin beta 1
[4] = Table 5, cyclic GFR-binding peptide in association with SiRNA Integrin alpha 3+RGDSPC+SiRNA Integrin beta 1+SiRNA Syndecan 1, 400 ng/mL

CAAPASSSVPARLSPISLLYIDAANNVVYKQYEDM (Non-cyclic GFR-binding peptide) [SEQ ID NO: 183]
P53 [1]: 44
pRB [2]: 13

CTVPKPSSAPTQLSPISILYIDAANNVVYKQYEDMVVRA (Non-cyclic GFR-binding peptide) [SEQ ID NO: 187]
P53 [1]: 42
pRB [2]: 9

CVPTEERSVKVAKVRIKPHQGQHKEVQV (Non-cyclic GFR-binding peptide) [SEQ ID NO: 176]
P53 [1]: 33
pRB [2]: 7

SRVLLRPVQMRKIDKGVVTYKKATVLLEEH (Non-cyclic GFR-binding peptide) [SEQ ID NO: 139]
P53 (%) [1, 3]: 49%
pRB (%) [2, 3]: 18%

WWFWGASSAVSQELSAISMLYLGGGLKNYQDMQHN (Non-cyclic GFR-binding peptide) [SEQ ID NO: 171]
P53 [1]: 47
pRB [2]: 8

CASAAPSSVPQALEPLPIVYYVGRTPKVEQLSNMIVRSSK (Non-cyclic GFR-binding peptide) [SEQ ID NO: 175]
P53 [1]: 45
pRB [2]: 7

VPTVVSPISMLYIDDMGVPTYKQYEVVVVE (Non-cyclic GFR-binding peptide) [SEQ ID NO: 131]
P53 (%) [1, 3]: 36%
pRB (%) [2, 3]: 12%

PTSSAPTDLRSVKMAKVEIVRKKPIFKEVQVDMVVKASGDKGVVTY (not fully specified; also: cyclic peptide) [SEQ ID NO: 38221]
P53 (%) [1, 4]: 48%
pRB (%) [2, 4]: 11%

CAAAPASSSVPARLSPISILYIAAAYKQYEDM (Non-cyclic GFR-binding peptide) [SEQ ID NO: 185]
P53 [1]: 47
pRB [2]: 8

VPQQQEPLTTLYYDEYDKVVEQLSNQQVKS (Non-cyclic GFR-binding peptide) [SEQ ID NO: 134]
P53 (%) [1, 3]: 50%
pRB (%) [2, 3]: 8%

VSQAARPVQTRKIDDMGVPTKKATVAAVKSDDMGVPT (also: cyclic peptide) [SEQ ID NO: 38220]
P53 (%) [1, 4]: 42%
pRB (%) [2, 4]: 9%

APVAAKPLSMLYVDKGVVTYDHHKDAAVEE (Non-cyclic GFR-binding peptide) [SEQ ID NO: 132]
P53 (%) [1, 3]: 38%
pRB (%) [2, 3]: 9%

VPTDDSATSTLYYDKGVVTYLRKHRDDEHS (Non-cyclic GFR-binding peptide) [SEQ ID NO: 137]
P53 (%) [1, 3]: 42%
pRB (%) [2, 3]: 12%

CAAPASSSVPARLSPISILYIDAANNVVYKQYEDMVVE (Non-cyclic GFR-binding peptide) [SEQ ID NO: 182]
P53 [1]: 41
pRB [2]: 8

GTPGPAPTQLSPISVLYKDDSSNVILKYHY (Non-cyclic GFR-binding peptide) [SEQ ID NO: 31]
P53 [1]: 34
pRB [2]: 5

GTPGPRNVQCRPTQVQLSAISTLYLEIVRKKPLKNYQTLEDH (Non-cyclic GFR-binding peptide) [SEQ ID NO: 172]
P53 [1]: 33
pRB [2]: 12

VPTAASAISILYLDAANNVVLKNYQAAVVE (Non-cyclic GFR-binding peptide) [SEQ ID NO: 123]
P53 (%) [1, 3]: 32%
pRB (%) [2, 3]: 11%

TPTSSSPINTLYFDDMGVPTYGKIPSSVVD (Non-cyclic GFR-binding peptide) [SEQ ID NO: 130]
P53 (%) [1, 3]: 48%
pRB (%) [2, 3]: 15%

CGIPEPSSVPEKTSSLSLLFFDENKNVVLKVYPNM (Non-cyclic GFR-binding peptide) [SEQ ID NO: 180]
P53 [1]: 29
pRB [2]: 9

GTPGPRNVQCRPTQVQLSAISTLYLAAALKNYQTLE (Non-cyclic GFR-binding peptide) [SEQ ID NO: 173]
P53 [1]: 37
pRB [2]: 15

VPTAAEPLTMLYYEIVRKKPIFEQLSNMVEHSDDMGVPT (also: cyclic peptide) [SEQ ID NO: 38223]
P53 (%) [1, 4]: 44%
pRB (%) [2, 4]: 17%

SRVAARSVKMAKVGGGGGGGKEVQVAAEEH (Non-cyclic GFR-binding peptide) [SEQ ID NO: 136]
P53 (%) [1, 3]: 38%
pRB (%) [2, 3]: 10%

CPARLSPISLLYIDAANNVVYKQYEDM (Non-cyclic GFR-binding peptide) [SEQ ID NO: 184]
P53 [1]: 39
pRB [2]: 11

WWFWGKASSVPTELSPISTLYKDENEKVVLKYHYDMVVEGSGSR (Non-cyclic GFR-binding peptide) [SEQ ID NO: 170]
P53 [1]: 44
pRB [2]: 7

CAAPASSSVPARLSPISILYIDAANNVVYKQYEDMVVEASG (Non-cyclic GFR-binding peptide) [SEQ ID NO: 181]
P53 [1]: 45
pRB [2]: 9

KASSSRVKMSNITVQIMRIKPHQGQHIGEMSVVEEHASGSHDKGVVTY (not fully specified; also: cyclic, mode of cyclisation not given here) [SEQ ID NO: 38222]
P53 (%) [1, 4]: 52%
pRB (%) [2, 4]: 15%

CVPTEESNITMQIMRIKPHQGQHIGEMSFL (Non-cyclic GFR-binding peptide) [SEQ ID NO: 177]
P53 [1]: 43
pRB [2]: 8

VPTAAEPISMLYLDEYDKVVKFKYEAAAVS (Non-cyclic GFR-binding peptide) [SEQ ID NO: 129]
P53 (%) [1, 3]: 42%
pRB (%) [2, 3]: 20%

VPEAASSLSMLFFEIVRKKPIFLKVYPAATVE (Non-cyclic GFR-binding peptide) [SEQ ID NO: 124]
P53 (%) [1, 3]: 37%
pRB (%) [2, 3]: 12%

VPTMMSNITTQIMRIKPHQGQHIGEMSMMQHN (Non-cyclic GFR-binding peptide) [SEQ ID NO: 135]
P53 (%) [1, 3]: 48%
pRB (%) [2, 3]: 16%

CKIPKASSVPTELEPLPIVYYVGRKPKVEQLSNMIVRS (Non-cyclic GFR-binding peptide) [SEQ ID NO: 174]
P53 [1]: 40
pRB [2]: 6

VPTVVSAISTLYLRIKPHQGQHLKNYQVVVVE (Non-cyclic GFR-binding peptide) [SEQ ID NO: 125]
P53 (%) [1, 3]: 42%
pRB (%) [2, 3]: 9%

VPQAAEPLPMLYYDKGVVTYEQLSNAAVRS (Non-cyclic GFR-binding peptide) [SEQ ID NO: 133]
P53 (%) [1, 3]: 42%
pRB (%) [2, 3]: 7%

VPTSSSPISTLYIDKGVVTYLKYHYSSVAE (Non-cyclic GFR-binding peptide) [SEQ ID NO: 128]
P53 (%) [1, 3]: 36%
pRB (%) [2, 3]: 21%

GTPGPKASSVPTELSPISTLYKDENEKVVLKYHYDM (Non-cyclic GFR-binding peptide) [SEQ ID NO: 168]
P53 [1]: 51
pRB [2]: 13

KASSVPQEERPVQMRKIGGGGGGGKKATVMIVRSSKSSDDMGVPT (not fully specified; also: cyclic, mode of cyclisation not given here) [SEQ ID NO: 38219]
P53 (%) [1, 4]: 38%
pRB (%) [2, 4]: 15%

IPKASSAPVGQRPVQMRKIDKGVVTYKKATVSSVEESGSLDKGVVTY (not fully specified; also: cyclic, mode of cyclisation not given here) [SEQ ID NO: 38218]
P53 (%) [1, 4]: 36%
pRB (%) [2, 4]: 12%

GTPGPAPTKLSAISMLYLDSSNNVILRKHR (Non-cyclic GFR-binding peptide) [SEQ ID NO: 165]
P53 [1]: 42
pRB [2]: 9

APTGGSATSMLYYDKGVVTYLRKHRGGVVK (Non-cyclic GFR-binding peptide) [SEQ ID NO: 127]
P53 (%) [1, 3]: 33%
pRB (%) [2, 3]: 16%

GTPGPPSSAPTQLSATSVLYYDDSSNVILRKHRMIVKS (Non-cyclic GFR-binding peptide) [SEQ ID NO: 164]
P53 [1]: 47
pRB [2]: 10
